Results published in publication PMC10377753, “Pharmacokinetic and pharmacodynamic properties of polymyxin B in Escherichia coli and Klebsiella pneumoniae murine infection models” (Journal of Antimicrobial Chemotherapy, 2023).
Where a name gives a salt, the structure may show the parent alone. Bridge positions count the residues as written; N and C are the ends. Square brackets hold non-standard residues; d marks the D form. Peptide text beside a SMILES is read from it. * marks the point of attachment. X1 = CC[C@H](C)CCCCC(=O)*; Dab = NCC[C@H](N)C(=O)O

Assays:
[1] = system: gram-negative pathogens; conditions: previous studies; cited from earlier work
Method: To determine whether these targets are achieved in humans, the PTAs for the 200 mg q24h dose were calculated. It is clear that the degree of protein binding is essential herein and more clarity on the protein binding in human plasma is needed before an optimal dosing regimen can be recommended, since for a highly protein-bound drug a small error on the fu would yield important PTA differences.

[2] = system: E. coli isolates; test: Dose-response study, thigh infection model, summary over E. coli isolates; format: in vivo, Escherichia coli
Method: Experiments were carried out in the Erasmus Laboratory Animal Science Centre in Rotterdam, The Netherlands in accordance with the EU Animal Directive 2010/63/EU 2010 directive[14] (licence number AVD101002016702) as described before,[15] with approval of the institutional Animal Welfare Body. Outbred female CD-1 mice obtained from Charles River Germany, weighing 20–25 g, 7–8 weeks old, were used in the experiments. The mice were housed under standard conditions with drink and feed supplied ad libitum.
Mice were rendered neutropenic by intraperitoneal injection of cyclophosphamide of 150 and 100 mg/kg, 4 days and 1 day before infection, respectively. On the day of infection, an overnight culture of the bacteria was diluted in fresh CAMHB and incubated at 37°C for 1 or 2 h depending on the growth rate of the strain. After incubation the inoculum was diluted in CAMHB or saline for the thigh and lung infection model, respectively, in order to obtain approximately 5.0 × 10^7 cfu/mL. Mice were then infected intramuscularly in each thigh (thigh infection model) or intranasally under isoflurane anaesthesia (lung infection model), with 0.05 mL of inoculum containing approximately 2.5 × 10^6 bacteria. Analgesia was given in the form of buprenorphine directly after infection, every 12 h.
For dose–response studies, a 6 hourly dosing regimen of 1–32 mg/kg was studied in the thigh infection model. Mice were infected with E. coli […], 15, 51 or 71 or K. pneumoniae ATCC 43816, 17, 58 or 74.
Animals were humanely euthanized 24 h (t = 24 h) after the first dose, unless the welfare of the animals necessitated earlier termination, following animal welfare regulations. Excised thighs were transferred to a pre-cooled 14 mL polypropylene tube containing 2 mL of PBS and were homogenized using a T25 ULTRA-TURRAX (IKA-Werke GmbH & Co, Staufen, Germany). A 10-fold dilution series was prepared and 3 × 10 μL was plated per dilution. The following day, colonies were counted and the number of cfu per thigh was calculated.
The drug effect was determined by the difference between the log10 cfu values at t = 0 h (mean value of two mice) and t = 24 h (value of individual mice) expressed as Δlog10 cfu. The fAUC/MIC, fCmax/MIC and %fT>MIC were determined based on the simulated time–concentration profiles over 24 h as derived in MicLab 2.71 (MEDIMATICS, Maastricht, The Netherlands) using 200 points per dosing interval.
A sigmoid maximum effect (Emax) model was fitted to the PK/PD index versus Δlog10 cfu data by non-linear regression, and static or a 1 log or 2 log kill effect were determined using GraphPad Prism 8.0 (GraphPad, Inc., San Diego, CA, USA). A two-tailed unpaired t-test was performed in GraphPad Prism 8.0 to determine if there was a significant difference in the fAUC/MIC targets correlating with a static or a 1 log or 2 log decline, between E. coli and K. pneumoniae isolates.

[3] = Epithelial lining fluid (ELF) concentration from BAL, urea correction; format: in vivo; conditions: lung-infected mice
Method: Bronchoalveolar lavage (BAL) was performed immediately after blood collection. The trachea was exposed by a ventral vertical incision in the neck for insertion of a cannula. Lungs were instilled two times with 1 mL of sterile saline, and the fluid was recovered immediately. The recovered lavages were pooled, directly placed on ice, and subsequently stored at −80°C.
By taking BAL fluid samples and a plasma sample at the same timepoint, the concentrations in ELF could be determined. The ratio of the urea concentration in BAL to the concentration in plasma was used to determine the ELF concentration.[17] In short, polymyxin B concentration in ELF was calculated by multiplying the polymyxin B concentration in the BAL fluid by the ratio of the urea concentration in the plasma and BAL fluid: [polymyxin B]ELF = [polymyxin B]BAL × ([urea]Plasma/[urea]BAL). Urea concentrations were measured with an enzymatic assay (QuantiChrom urea assay kit; DIUR-100; BioAssay Systems, Hayward, CA, USA).
Polymyxin B concentrations in plasma, BAL and ultrafiltrates were determined by a validated LC-MS/MS method,[18] with a lower limit of quantification (LOQ) of 0.2 mg/L for plasma and 0.05 mg/L for BAL fluid and ultrafiltrates. […] The residues were dissolved in 0.1 mL of 0.1% formic acid in water and analysed by LC-MS/MS. […] Polymyxin B was analysed on an XBridge C18 column (5 µm, 2.1 × 150 mm; Waters). […]

[4] = two E. coli isolates in which 1 log kill was found

Structure (SMILES): CC[C@H](C)CCCCC(=O)N[C@@H](CCN)C(=O)N[C@H](C(=O)N[C@@H](CCN)C(=O)N[C@H]1CCNC(=O)[C@H]([C@@H](C)O)NC(=O)[C@H](CCN)NC(=O)[C@H](CCN)NC(=O)[C@H](CC(C)C)NC(=O)[C@@H](Cc2ccccc2)NC(=O)[C@H](CCN)NC1=O)[C@@H](C)O [polymyxin B, Polymyxin B sulphate salt] (X1-[Dab]T[Dab][Dab][Dab][dF]L[Dab][Dab]T; lactam 4-C)
- MIC90 [1]: 0.5 to 1 µg/mL
- Isolates in which 1 log kill was found ([2]; E. coli isolates, mouse thigh infection): 2/4
- Target value of fAUC/MIC, static effect, average ([2]; average of four E. coli isolates, mouse thigh infection, q6h): 64.3
- Target value of fAUC/MIC, static effect, median ([2]; median of four E. coli isolates, mouse thigh infection, q6h): 63.5
- Target value of fAUC/MIC, static effect, range ([2]; range over four E. coli isolates, mouse thigh infection, q6h): 27.5–102.6
- fAUC/MIC for 1 log kill, median [2, 4]: 50.6
- fAUC/MIC for 1 log kill, range [2, 4]: 46.8–54.5
- Concentration in ELF ([3]; 64 mg/kg s.c., BAL, urea correction, data not shown): Low levels
- Concentration in ELF ([3]; other doses (1, 4, 16 mg/kg s.c.), LOQ 0.05 mg/L for BAL fluid): below the LOQ
